One data set has as its target PI3Ka (Homo sapiens, UniProt P42336). Put plainly: PI3Ka biochemical assay.
Data set [1] deals with six prioritized vascular targets (VEGFR2, TIE2, CCL2, PAI-1, CXCL10, uPAR). In words: Vascular bioactivity score (VBS): weighted sum of activity across 23 ToxCast assays. Further details: species or system human.
For data set [2], the system named is rat. The conditions noted are these: cited from earlier work.
The target in the next data set is PTEN (Homo sapiens, UniProt P60484). Put plainly: PTEN biochemical assay.
The next data set concerns mouse. The conditions noted are these: cited from earlier work.
The target in the next data set is T1, EphB2 (Homo sapiens, UniProt P29323).
T1 sequence (P29323 569-986 isoform P29323-2 limits assumed): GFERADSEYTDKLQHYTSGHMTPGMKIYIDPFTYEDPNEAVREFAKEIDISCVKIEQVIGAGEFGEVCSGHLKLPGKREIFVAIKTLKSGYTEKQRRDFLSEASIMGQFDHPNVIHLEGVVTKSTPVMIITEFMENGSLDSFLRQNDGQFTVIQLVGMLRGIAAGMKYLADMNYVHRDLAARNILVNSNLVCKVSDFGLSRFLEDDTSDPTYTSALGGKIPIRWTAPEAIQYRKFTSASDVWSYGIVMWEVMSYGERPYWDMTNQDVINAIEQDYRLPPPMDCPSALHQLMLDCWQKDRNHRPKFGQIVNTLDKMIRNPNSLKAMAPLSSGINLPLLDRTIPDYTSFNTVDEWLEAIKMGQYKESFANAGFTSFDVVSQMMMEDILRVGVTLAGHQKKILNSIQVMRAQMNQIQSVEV
In words: EphB2 biochemical assay. The conditions noted are these: read-out: EphB2 AC50.

A further data set relates to pregnant rabbits. The note with it: cited from earlier work.
A further data set concerns rat/rabbit. The note with it: in vivo; cited from earlier work.
Data set [3] has as its system rat. The conditions noted are these: in vivo; cited from earlier work.
The next data set has as its system various species. The conditions noted are these: cited from earlier work.
For another data set, the target named is TIE2 (Homo sapiens, UniProt Q02763). Put plainly: TIE2 cell-free biochemical assay.
The target of the next data set is VEGFR1 (Homo sapiens, UniProt P17948). Put plainly: VEGFR1 biochemical assay. The note with it: read-out: VEGFR1 AC50.
For another data set, the target named is VEGFR3 (Homo sapiens, UniProt P35916). Put plainly: VEGFR3 biochemical assay.
In a further data set the target is VEGFR2 (Homo sapiens, UniProt P35968). Put plainly: VEGFR2 biochemical assay.
For another data set, the system named is pregnant rats. The conditions noted are these: rat-specific effects in ToxRefDB prenatal studies; ref U.S. EPA 2010b; cited from earlier work.
[4] abbreviates: ToxRefDB end points, ref U.S. EPA 2010b.
[5] abbreviates: rabbit-specific effects in ToxRefDB prenatal studies, ref U.S. EPA 2010b.
Setting [6] is: pVDCs with rabbit-specific effects.
The mark [7] stands for this setting: species and reference printed with each result.
Setting [8] is: read-out: TIE2 AC50, repeat of the TIE2 assay from the original data series.
The mark [9] stands for this setting: read-out: VEGFR2 AC50, biochemical.

Here are results for 21 molecules from paper PMC3226499, “Environmental Impact on Vascular Development Predicted by High-Throughput Screening” (Environmental Health Perspectives, 2011).

The term AC50 denotes the midpoint of the concentration-response curve, whichever way the signal moves.

Like-named read-outs stand apart in the source and are kept apart here.

Chain of VEGFR1 (P17948 27-1338, species assumed): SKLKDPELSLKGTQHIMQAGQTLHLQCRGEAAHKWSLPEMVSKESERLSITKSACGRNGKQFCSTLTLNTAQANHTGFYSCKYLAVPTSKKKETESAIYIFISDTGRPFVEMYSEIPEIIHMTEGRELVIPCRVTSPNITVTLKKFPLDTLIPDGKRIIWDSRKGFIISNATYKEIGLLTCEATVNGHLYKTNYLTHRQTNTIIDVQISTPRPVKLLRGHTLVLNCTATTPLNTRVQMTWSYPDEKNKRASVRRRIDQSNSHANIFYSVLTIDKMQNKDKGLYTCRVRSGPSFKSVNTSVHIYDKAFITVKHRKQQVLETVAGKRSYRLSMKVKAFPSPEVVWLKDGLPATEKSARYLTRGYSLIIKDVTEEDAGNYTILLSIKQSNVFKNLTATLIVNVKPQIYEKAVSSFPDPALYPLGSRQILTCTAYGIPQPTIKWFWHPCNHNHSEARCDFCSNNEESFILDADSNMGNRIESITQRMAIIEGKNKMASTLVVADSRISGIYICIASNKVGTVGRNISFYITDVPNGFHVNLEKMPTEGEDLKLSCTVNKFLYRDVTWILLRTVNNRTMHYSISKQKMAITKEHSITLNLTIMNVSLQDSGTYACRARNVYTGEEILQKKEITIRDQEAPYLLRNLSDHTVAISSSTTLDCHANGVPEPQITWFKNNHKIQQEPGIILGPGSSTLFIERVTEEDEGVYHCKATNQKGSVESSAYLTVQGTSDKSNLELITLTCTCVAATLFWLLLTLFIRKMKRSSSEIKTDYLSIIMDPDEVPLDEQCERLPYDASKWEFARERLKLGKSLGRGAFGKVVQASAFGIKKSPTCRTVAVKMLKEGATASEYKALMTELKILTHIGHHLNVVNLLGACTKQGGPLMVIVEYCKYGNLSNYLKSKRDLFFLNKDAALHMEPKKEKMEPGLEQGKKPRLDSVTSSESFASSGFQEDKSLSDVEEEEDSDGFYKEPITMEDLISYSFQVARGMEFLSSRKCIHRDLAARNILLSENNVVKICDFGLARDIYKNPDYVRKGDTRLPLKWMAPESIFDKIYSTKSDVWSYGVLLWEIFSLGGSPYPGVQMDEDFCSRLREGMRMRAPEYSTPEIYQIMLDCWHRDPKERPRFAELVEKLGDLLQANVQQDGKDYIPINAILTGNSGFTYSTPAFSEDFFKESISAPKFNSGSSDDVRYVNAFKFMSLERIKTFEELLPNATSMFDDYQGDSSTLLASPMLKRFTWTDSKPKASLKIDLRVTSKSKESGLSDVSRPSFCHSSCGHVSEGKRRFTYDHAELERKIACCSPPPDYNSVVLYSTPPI
Chain of PI3Ka (P42336 whole entry): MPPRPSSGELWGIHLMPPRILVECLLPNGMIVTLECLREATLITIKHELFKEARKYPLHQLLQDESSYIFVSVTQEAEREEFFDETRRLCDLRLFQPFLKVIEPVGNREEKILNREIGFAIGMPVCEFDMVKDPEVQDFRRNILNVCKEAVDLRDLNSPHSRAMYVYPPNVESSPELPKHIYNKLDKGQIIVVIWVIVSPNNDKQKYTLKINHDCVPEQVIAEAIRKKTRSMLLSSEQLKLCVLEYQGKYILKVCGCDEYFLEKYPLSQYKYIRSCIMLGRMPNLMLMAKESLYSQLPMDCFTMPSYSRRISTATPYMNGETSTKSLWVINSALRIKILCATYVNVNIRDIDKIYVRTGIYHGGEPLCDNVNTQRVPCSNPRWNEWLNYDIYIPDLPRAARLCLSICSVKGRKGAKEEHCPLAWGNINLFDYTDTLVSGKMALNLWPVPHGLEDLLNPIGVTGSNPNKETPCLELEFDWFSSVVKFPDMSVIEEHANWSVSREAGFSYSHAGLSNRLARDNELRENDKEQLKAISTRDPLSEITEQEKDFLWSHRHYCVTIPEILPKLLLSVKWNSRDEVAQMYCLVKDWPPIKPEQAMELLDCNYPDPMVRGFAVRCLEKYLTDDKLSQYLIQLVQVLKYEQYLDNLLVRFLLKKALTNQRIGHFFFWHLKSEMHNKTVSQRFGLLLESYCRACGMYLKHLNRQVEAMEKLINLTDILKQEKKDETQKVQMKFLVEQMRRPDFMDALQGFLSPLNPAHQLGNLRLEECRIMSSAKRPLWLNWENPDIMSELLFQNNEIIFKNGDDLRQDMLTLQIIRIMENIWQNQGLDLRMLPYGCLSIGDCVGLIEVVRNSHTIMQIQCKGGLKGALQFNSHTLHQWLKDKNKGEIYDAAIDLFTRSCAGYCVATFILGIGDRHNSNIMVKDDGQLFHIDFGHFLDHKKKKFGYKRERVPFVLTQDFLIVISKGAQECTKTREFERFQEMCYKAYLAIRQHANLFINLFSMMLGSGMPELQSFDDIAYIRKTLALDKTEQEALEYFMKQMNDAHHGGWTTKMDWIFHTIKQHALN
Chain of PI3Ka (P27986 whole entry partner): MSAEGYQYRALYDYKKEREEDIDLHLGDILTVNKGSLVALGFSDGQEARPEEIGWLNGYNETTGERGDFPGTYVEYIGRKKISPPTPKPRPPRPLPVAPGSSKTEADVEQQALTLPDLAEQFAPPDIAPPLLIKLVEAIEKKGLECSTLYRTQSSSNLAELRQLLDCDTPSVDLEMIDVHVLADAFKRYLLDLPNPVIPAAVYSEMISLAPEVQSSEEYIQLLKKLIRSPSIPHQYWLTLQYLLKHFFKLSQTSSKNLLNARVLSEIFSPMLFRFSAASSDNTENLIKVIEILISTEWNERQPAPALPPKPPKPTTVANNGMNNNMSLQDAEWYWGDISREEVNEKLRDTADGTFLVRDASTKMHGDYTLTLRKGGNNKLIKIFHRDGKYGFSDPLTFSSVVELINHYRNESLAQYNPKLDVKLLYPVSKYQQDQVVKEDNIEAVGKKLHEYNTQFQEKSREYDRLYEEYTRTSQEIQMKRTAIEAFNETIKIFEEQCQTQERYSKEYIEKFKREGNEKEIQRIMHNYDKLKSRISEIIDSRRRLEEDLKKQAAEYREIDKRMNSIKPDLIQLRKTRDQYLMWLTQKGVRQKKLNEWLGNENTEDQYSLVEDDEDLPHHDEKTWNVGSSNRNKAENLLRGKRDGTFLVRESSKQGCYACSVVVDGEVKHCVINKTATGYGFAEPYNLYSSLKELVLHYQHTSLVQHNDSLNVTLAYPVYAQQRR
Chain of TIE2 (Q02763 23-1124, species assumed): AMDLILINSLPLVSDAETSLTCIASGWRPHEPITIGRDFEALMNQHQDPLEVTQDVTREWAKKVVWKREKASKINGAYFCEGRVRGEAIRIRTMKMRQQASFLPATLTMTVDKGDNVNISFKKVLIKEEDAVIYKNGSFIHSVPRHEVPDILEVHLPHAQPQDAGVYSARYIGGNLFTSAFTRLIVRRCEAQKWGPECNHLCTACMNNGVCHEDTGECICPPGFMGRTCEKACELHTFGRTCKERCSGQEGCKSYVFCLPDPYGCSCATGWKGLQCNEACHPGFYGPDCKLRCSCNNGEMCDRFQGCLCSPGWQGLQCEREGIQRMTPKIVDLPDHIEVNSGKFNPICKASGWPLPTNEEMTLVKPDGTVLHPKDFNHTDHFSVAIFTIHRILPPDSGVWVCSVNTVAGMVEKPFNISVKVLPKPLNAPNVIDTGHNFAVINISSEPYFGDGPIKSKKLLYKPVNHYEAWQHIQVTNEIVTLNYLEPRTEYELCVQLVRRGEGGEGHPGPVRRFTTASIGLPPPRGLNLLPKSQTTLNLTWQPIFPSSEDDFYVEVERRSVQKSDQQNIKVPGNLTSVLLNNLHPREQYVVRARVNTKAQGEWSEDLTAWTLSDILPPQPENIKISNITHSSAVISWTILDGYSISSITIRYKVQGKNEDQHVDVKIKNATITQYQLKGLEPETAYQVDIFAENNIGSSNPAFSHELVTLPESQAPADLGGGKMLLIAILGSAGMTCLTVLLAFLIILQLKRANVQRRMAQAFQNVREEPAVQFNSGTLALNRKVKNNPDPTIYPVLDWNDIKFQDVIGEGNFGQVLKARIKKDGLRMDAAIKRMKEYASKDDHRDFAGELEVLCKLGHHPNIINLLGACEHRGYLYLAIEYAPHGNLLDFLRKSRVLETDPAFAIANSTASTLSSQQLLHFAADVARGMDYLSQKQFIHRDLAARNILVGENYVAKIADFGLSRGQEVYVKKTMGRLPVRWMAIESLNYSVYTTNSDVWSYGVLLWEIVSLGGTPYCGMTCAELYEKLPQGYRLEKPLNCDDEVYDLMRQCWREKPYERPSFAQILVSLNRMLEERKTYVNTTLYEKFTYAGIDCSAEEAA
Chain of PTEN (P60484 whole entry, species assumed): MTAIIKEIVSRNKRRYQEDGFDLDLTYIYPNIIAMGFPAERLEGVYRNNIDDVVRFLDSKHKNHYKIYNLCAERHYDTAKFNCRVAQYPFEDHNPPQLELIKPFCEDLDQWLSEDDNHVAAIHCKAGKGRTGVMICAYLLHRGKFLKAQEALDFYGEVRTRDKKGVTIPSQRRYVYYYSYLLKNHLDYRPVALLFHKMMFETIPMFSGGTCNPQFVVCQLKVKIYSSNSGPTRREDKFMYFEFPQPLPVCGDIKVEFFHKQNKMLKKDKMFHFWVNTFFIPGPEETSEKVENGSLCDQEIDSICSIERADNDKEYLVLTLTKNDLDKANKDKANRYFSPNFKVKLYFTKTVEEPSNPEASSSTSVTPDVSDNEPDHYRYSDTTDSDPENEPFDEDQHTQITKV
From the text for VEGFR1: The chemical library was run against these assays, as was a repeat of the TIE2 assay from the original data series (Table 2).

For the molecule `Oc1ccc(C(c2ccc(O)cc2)C(Cl)(Cl)Cl)cc1` [2,2-bis-(p-Hydroxyphenyl)-1,1,1-trichloroethane], on PI3Ka, the activity was half-maximal at 28 µM (AC50). Also, in data set [1] (ToxCast chemicals of Table 2), the VBS came to 2.28.

On to `CC(C)N1C(=O)c2ccccc2NS1(=O)=O` [Bentazone], for which the “RAT Multigenerational” value in the data set on rat [2] (setting [4]) is recorded as “Kidney; Liver”.

With `O=C1C2CC=CCC2C(=O)N1SC(Cl)(Cl)Cl` (stereo not drawn) [Captan], in data set [1] (ToxCast chemicals of Table 2), the VBS amounted to 1.14. The molecule further registered an AC50 on PTEN of 35 µM.

Turning to `CCOP(=S)(OCC)Oc1ccc2c(C)c(Cl)c(=O)oc2c1` [Coumaphos], in the data set with mouse (setting [4]), the “MOUSE Chronic” value is “No effe ct re corded”.

With `O=C(O)C1(C(=O)Nc2ccc(Cl)cc2Cl)CC1` [Cyclanilide], the AC50 at EphB2 came out at 50 µM; at PTEN (read-out: PTEN AC50), 3.9 µM. In [1] (ToxCast chemicals of Table 2), this molecule gave a VBS of 0.21.

Turning to `CCOc1nc(F)cc2nc(S(=O)(=O)Nc3c(Cl)cccc3Cl)nn12` [Diclosulam], the Developmental phenotype entry in the data set with pregnant rabbits (setting [5]) is reported as “Maternal pregnancy loss”. For the same molecule, the VBS in data set [1] (ToxCast chemicals of Table 2) and in data set [1] (setting [6]) was 2.09 throughout. Moreover, the AC50 at PTEN (read-out: PTEN AC50) came out at 50 µM.

Turning to `N#Cc1nn(-c2c(Cl)cc(C(F)(F)F)cc2Cl)c(N)c1[S+]([O-])C(F)(F)F` (stereo not drawn) [Fipronil], in the data set on rat/rabbit, the “RAT/RABBIT Developmental” value is “No effe ct recorded”. Moreover, the “RAT Chronic” value in the data set with rat [3] is given as “KidneyNephropath y; Kidney_ AnyLesion; ThyroidGland_ AnyLesion, PreneoplasticL esion, Neoplasti cLesion; ThyroidProliferativeLesions; ThyroidTumors; Tumorigen”. Besides, in the data set with various species (in vivo), the “VTKB Results (peer-reviewed in vivo studies)” value (from here on “VTKB Results”) is “Developmental Neurotoxi city: Zebrafish (Stehr e t al. 2006)”. For the same molecule, the “RAT Multigenerational” value with rat [2] (rat, in vivo) is recorded as “Epididymis; Fertili ty; LitterSize; LiveBir thPND1; Liver; Mating; Ovary; Thyroid; ViabilityPND4”. For the same molecule, the “MOUSE Chronic” value with mouse (mouse, in vivo) is recorded as “LiverHypertrophy; LiverNec rosis; LiverProli ferativeLes ions; Liver_ AnyLes ion, PreneoplasticL esion”.

For `C=CCOC(Cn1ccnc1)c1ccc(Cl)cc1Cl` (stereo not drawn) [Imazalil], the “VTKB Results” value in the data set on various species (setting [7]) is recorded as “mammalian developmental toxicity”.

As to `S=C([S-])NCCNC(=S)[S-].[Mn+2]` [Maneb], the AC50 at TIE2 (setting [8]) is 8.08 µM; at VEGFR1, 4.1 µM; on EphB2, 23 µM; on VEGFR3 (read-out: VEGFR3 AC50), 12 µM; at VEGFR2 (setting [9]), 31 µM; at PTEN (read-out: PTEN AC50), 0.9 µM. In [1] (ToxCast chemicals of Table 2), this molecule registered a VBS of 4.69.

For `CN(C)[C@@H]1C(O)=C(C(N)=O)C(=O)[C@@]2(O)C(O)=C3C(=O)c4c(O)cccc4[C@@](C)(O)[C@H]3[C@H](O)[C@@H]12` [Oxytetracycline dihydrate, reference compound], the AC50 at TIE2 was found to be 15 µM; on PI3Ka it was 6.2 µM; at VEGFR3 it was 6.5 µM; on VEGFR2, 19 µM; on PTEN it was 1.6 µM. The same molecule had a VBS in data set [1] (ToxCast chemicals of Table 2) of 3.85.

For `O=S(=O)(O)C(F)(F)C(F)(F)C(F)(F)C(F)(F)C(F)(F)C(F)(F)C(F)(F)C(F)(F)F` [Perfluorooctanesulfonic acid], the AC50 at TIE2 (setting [8]) was determined as 4.43 µM; on VEGFR1, 8.2 µM; on VEGFR3 (read-out: VEGFR3 AC50), 8 µM; at VEGFR2 (setting [9]) it was 50 µM; on PTEN (read-out: PTEN AC50), 17 µM. The “PI3Ka AC50” value at PI3Ka was 6.5 µM. In data set [1] (ToxCast chemicals of Table 2), the VBS came out at 3.48.

For `O=C(O)C(F)(F)C(F)(F)C(F)(F)C(F)(F)C(F)(F)C(F)(F)C(F)(F)F` [Perfluorooctanoic acid], the AC50 on TIE2 was 31.9 µM. The VBS in [1] (ToxCast chemicals of Table 2) turned out to be 3.04. The “VTKB Results” value with various species (setting [7]) is listed as “mammalian developmental toxicity”.

`CCS(=O)(=O)c1cccnc1S(=O)(=O)NC(=O)Nc1nc(OC)cc(OC)n1` [Rimsulfuron]: the Developmental phenotype entry in the data set on pregnant rabbits (rabbit, in vivo) is reported as “Embryo fetal loss; maternal pregnancy loss”. Besides, the VBS in data set [1] (setting [6]) is listed as 2.52.

For `CCC/C(=N\OCC)C1=C(O)CC(CC(C)SCC)CC1=O` (stereo not drawn) [Sethoxydim], the VBS in data set [1] (ToxCast chemicals of Table 2) was 0.00. The molecule also registered an AC50 at PTEN of 22 µM.

As for `CCc1ccc(C(=O)NN(C(=O)c2cc(C)cc(C)c2)C(C)(C)C)cc1` [Tebufenozide], the “MOUSE Chronic” value with mouse (setting [4]) is “Spleen_ AnyLesion”.

Consider `CON=C(C(=O)OC)c1ccccc1CON=C(C)c1cccc(C(F)(F)F)c1` [Trifloxystrobin], for which the Developmental phenotype entry in the data set with pregnant rabbits (setting [5]) is “Skeletal: axial”. Also, the VBS in [1] (setting [6]) is given as 4.26.

For the molecule `CCC(C)(NC(=O)c1cc(Cl)c(C)c(Cl)c1)C(=O)CCl` (stereo not drawn) [Zoxamide], the “RAT/RABBIT Developmental” value in the data set with rat/rabbit is given as “No effe ct recorded”. Moreover, in the data set on rat [3], the “RAT Chronic” value is on record as “No effe ct re corded”. In addition, in the data set on rat [2] (rat, in vivo), the “RAT Multigenerational” value is “No effe ct recorded”. Also, the “MOUSE Chronic” value in the data set with mouse (mouse, in vivo) is on record as “LungTumors; Lung_ AnyLesion, PreneoplasticL esion, Neoplasti cLesion; Tumorigen”.

Take Abamectin: the AC50 at TIE2 (setting [8]) turned out to be 38.8 µM; at EphB2, 17 µM. On PI3Ka, the “PI3Ka AC50” value came to 6.4 µM. This molecule also returned a VBS in [1] (ToxCast chemicals of Table 2) of 5.19.

Take Emamectin benzoate: the AC50 was 21 µM at EphB2 and 2.1 µM on PTEN (read-out: PTEN AC50). Further, the “PI3Ka AC50” value at PI3Ka was found to be 7.9 µM. The VBS in data set [1] (ToxCast chemicals of Table 2) and in data set [1] (pVDCs with rat-specific effects) was 2.91 throughout. Further, the Developmental phenotype entry with pregnant rats is given as “Fetal weight reduction; skeletal: appendicular, axial, cranial”.

Turning to Mancozeb, the AC50 on TIE2 (setting [8]) was found to be 10.4 µM; at VEGFR1, 19 µM; on EphB2, 21 µM; at VEGFR3 (read-out: VEGFR3 AC50) it was 1.3 µM; at VEGFR2 (setting [9]), 5.9 µM; on PTEN (read-out: PTEN AC50), 0.23 µM. Also, the “PI3Ka AC50” value on PI3Ka is on record as 20 µM. The molecule further displayed a VBS in data set [1] (ToxCast chemicals of Table 2) of 3.00.

With Metiram-zinc, the AC50 at TIE2 (setting [8]) came out at 15 µM; at VEGFR1 it was 6.6 µM; at VEGFR3 (read-out: VEGFR3 AC50), 22 µM; on VEGFR2 (setting [9]), 41 µM; on PTEN (read-out: PTEN AC50), 12 µM. Further, the “PI3Ka AC50” value at PI3Ka turned out to be 29 µM. In [1] (ToxCast chemicals of Table 2), the VBS worked out at 4.35.
